According to patent publication US5118882A, “Streptenols from streptomycetes, and the preparation and use thereof” (Hoechst Aktiengesellschaft, priority 1989, dated 1992):

Tested on: HEP-G2 cells
Test: Inhibition of cholesterol biosynthesis (14C-acetate incorporation into cholesterol)
Type: cell-based
Conditions: Homo sapiens, HepG2; HEP-G2 monolayers, 1 h preincubation, 3 h with 14C-sodium acetate; read-out: IC50 value (concentration at which 50% of the cholesterol synthesis was inhibited)
Experimental: 4. Inhibition of cholesterol biosynthesis
The biological effectiveness of the compound of the formula I was determined using cell cultures of cell line HEP-G2. For this purpose, monolayers of HEP-G2 cells were preincubated for one hour in a lipo-protein-free culture medium containing appropriate concentrations of the test substances; after the ^14 C-labeled precursor ^14 C-(sodium acetate) has been added, incubation is continued for three hours. After this, a portion of the cells are subjected to alkaline hydrolysis, an internal standard of ^3 H-cholesterol having been added previously. The lipids of the hydrolysed cells are extracted using chloroform/methanol. Support-cholesterol is added, and this lipid mixture is then separated by means of preparative thin-layer chromatography; the cholesterol band is made visible and then isolated, and the amount ^14 C-cholesterol which has been formed from the ^14 C-precursor is determined scintigraphically. […] In aliquots of the cell culture, the intactness of the cell culture and lack of damage to cells by the influence of preparations is assessed morphologically (in an optical microscope) and biochemically by determining the amount of lactate dehydrogenase in the incubation medium. […]

`CC[C@H](C)C(=O)O[C@H]1C[C@@H](C)C=C2C=C[C@H](C)[C@H](CC[C@@H]3C[C@@H](O)CC(=O)O3)[C@H]21` [lovastatin] gave an IC50 of 20 nM.
